Measured values reported in patent US9295673B2, “Combination of mTOR inhibitors and P13-kinase inhibitors, and uses thereof” (Intellikine LLC, priority 2011, dated 2016).

Key:
[1] = tested on: MDA-MB-361 cells; experiment: Cell proliferation (CellTiter-Glo) in MDA-MB-361 cells; format: cell-based, human; settings: read-out: inhibition of cell proliferation, IC50
Procedure: (§1) Cells comprising one or more mutations in PI3Kα, including but not limited to breast cancer cells (e.g., MDA-MB-361, T47D, SKOV-3), and cells comprising one or more mutations in PTEN including but not limited to prostate cancer cells (e.g., PC3), are typically grown in cell growth media such as DMEM supplemented with fetal bovine serum and/or antibiotics, and grown to confluency. Cells are then treated with various concentrations of test compound for about 2 hours and subsequently lysed in cell lysis buffer. Lysates are subjected to SDS-PAGE followed by Western blot analysis to detect downstream signaling markers, including but not limited to pAKT(S473), pAKT(T308), pS6, and p4E-BP1.
Cells were seeded at 5000-10,000 per well in a 96 well flat bottom plate 90 ul growth media. Pre-diluted compound (at 10 times the final concentration) or DMSO (control) was added. The compounds were prepared such that the dose range extended from a final concentration of 30 μM to 14 nM via 3-fold serial dilutions (8 point curve). The final DMSO concentration was 0.3%. […] After 72 hours, proliferation was measured using CellTiter-Glo Luminescent reagent (Promega, PR-G7573). […] Contents were mixed for 30 minutes on an orbital shaker to lyse cells Luminescence was read on a PerkinElmer EnVision plate reader. […] Inhibition % was calculated as: 1−(cells+inhibitor)−background signal)/(cells+DMSO)−background signal)[…].

[2] = tested on: Akt, S6, 4EBP phosphorylation; experiment: Western blot of PI3K pathway phosphorylation (Akt, S6, 4EBP); format: cell-based
[3] = tested on: B cell function; experiment: B cell function in vivo (TNP-Ficoll immunization, antibody production); set-up: species or system mouse; settings: mice immunized with TNP-Ficoll; 70 mg/kg GDC0941; 30, 60 or 120 mg/kg Compound A for 7 days (FIG. 8)
[4] = biological target: PI3K α (Homo sapiens, UniProt P42336); experiment: PI 3-Kinase (human) HTRF assay, PI3K α; settings: chart (FIG. 6C)
Sequence of PI3K α (P42336 whole entry): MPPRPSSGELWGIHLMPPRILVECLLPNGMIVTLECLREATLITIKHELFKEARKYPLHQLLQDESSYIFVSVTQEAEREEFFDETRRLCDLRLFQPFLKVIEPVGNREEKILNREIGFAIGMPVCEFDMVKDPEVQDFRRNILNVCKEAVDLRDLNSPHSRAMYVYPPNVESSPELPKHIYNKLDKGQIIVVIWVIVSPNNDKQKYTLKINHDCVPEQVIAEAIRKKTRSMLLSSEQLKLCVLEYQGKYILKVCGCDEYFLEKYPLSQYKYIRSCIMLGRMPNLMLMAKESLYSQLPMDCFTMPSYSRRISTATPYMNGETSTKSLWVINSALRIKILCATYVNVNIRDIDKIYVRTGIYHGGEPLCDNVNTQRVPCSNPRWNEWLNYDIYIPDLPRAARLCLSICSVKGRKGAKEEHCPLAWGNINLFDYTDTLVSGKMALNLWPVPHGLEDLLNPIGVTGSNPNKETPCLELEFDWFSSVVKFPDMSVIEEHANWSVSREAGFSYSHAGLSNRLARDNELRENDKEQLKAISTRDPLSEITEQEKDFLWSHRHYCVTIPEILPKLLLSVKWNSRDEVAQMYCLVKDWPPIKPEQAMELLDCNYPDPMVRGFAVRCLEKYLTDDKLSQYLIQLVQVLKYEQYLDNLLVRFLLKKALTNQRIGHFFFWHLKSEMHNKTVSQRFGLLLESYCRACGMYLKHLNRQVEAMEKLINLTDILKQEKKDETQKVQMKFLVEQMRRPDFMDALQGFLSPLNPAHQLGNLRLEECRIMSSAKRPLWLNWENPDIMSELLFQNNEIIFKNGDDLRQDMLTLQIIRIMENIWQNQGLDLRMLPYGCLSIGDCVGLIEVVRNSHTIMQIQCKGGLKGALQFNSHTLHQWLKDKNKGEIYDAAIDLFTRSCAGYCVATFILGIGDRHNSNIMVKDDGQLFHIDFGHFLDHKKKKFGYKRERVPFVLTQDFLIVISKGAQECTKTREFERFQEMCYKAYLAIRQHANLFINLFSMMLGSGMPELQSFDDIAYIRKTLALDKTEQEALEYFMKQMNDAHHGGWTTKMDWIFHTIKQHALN
Sequence of PI3K α (P27986 whole entry partner): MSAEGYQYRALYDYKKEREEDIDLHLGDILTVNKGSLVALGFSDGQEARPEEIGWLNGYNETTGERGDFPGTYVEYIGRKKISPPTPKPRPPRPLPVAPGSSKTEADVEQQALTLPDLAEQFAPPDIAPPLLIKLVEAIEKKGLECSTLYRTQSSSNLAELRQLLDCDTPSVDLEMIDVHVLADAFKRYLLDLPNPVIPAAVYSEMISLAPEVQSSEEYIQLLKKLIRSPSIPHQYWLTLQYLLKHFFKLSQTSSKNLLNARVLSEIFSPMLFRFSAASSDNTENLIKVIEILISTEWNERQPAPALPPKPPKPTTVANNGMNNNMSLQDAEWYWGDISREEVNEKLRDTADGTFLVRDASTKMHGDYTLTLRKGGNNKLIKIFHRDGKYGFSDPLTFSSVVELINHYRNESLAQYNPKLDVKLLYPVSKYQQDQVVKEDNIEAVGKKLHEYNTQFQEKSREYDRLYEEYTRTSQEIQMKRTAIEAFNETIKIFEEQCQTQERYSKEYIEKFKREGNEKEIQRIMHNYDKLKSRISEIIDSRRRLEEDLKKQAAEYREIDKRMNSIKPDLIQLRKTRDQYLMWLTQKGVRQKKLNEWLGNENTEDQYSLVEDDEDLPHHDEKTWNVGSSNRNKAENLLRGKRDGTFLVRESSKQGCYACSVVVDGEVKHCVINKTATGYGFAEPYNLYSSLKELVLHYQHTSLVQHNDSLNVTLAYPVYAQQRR

[5] = tested on: pAKT(S473) in MDA-MB-361 cells; experiment: Western blot of Akt phosphorylation (pAKT) in MDA-MB-361 cells; format: cell-based, human; settings: about 2 hours treatment, read-out: inhibition of pAKT, IC50
Procedure: as §1
MDA-MB-361(PIK3CA-E545K), MDA-MB-453 (PIK3CA-H1047R), and SK-Br3 (Her2) cells were treated with various concentrations of Compound A for 2 h and subsequently lysed. Lysates were subjected to SDS-PAGE followed by Western blot analysis as described above to detect downstream pathway markers.

[6] = tested on: 786-O human kidney carcinoma tumors; experiment: In vivo efficacy in 786-O xenograft model; set-up: species or system nude mice; settings: oral, FIG. 6
[7] = tested on: pAKT(S473), pAKT(T308) in PC3 cells; experiment: Western blot of Akt phosphorylation (pAKT) in PC3 cells; format: cell-based; settings: PC3 cells, about 2 hours treatment, read-out: inhibition of pAKT, IC50
Procedure: as §1

[8] = tested on: breast cancer model; experiment: Preclinical breast cancer model (tumor weight / volume); format: in vivo; settings: for tumor weight of a breast cancer model: 70 mg/kg Pan-PI3K inhibitor, 60 mg/kg compound A (FIG. 9 left)
[9] = tested on: MDA-MB-361 (PI3Kα/HER2 carcinoma) tumors; experiment: In vivo efficacy in MDA-MB-361 xenograft mouse model of breast cancer; set-up: species or system nude mice; settings: 70 mg/kg Pan-PI3K inhibitor, 60 mg/kg compound A, FIG. 9 left panel
Procedure: Blood glucose was monitored periodically following administration of treatment.
Treatment of tumors (MDA-MB-361) with compounds was discontinued on Day 30. Tumors were measured every 2-5 days.

[10] = tested on: human tumor cell lines; experiment: Tumor cell line proliferation assay; format: cell-based; settings: chart (FIG. 13)
Procedure: The ability of one or more subject compounds to inhibit tumor cell line proliferation is determined according to standard procedures known in the art. For instance, an in vitro cellular proliferation assay can be performed to measure the metabolic activity of live cells. The assay is performed in a 96 well microtiter plate using Alamar Blue reduction. Human tumor cell lines are obtained from ATCC (e.g., MCF7, U-87 MG, MDA-MB-468, PC-3), grown to confluency in T75 flasks, trypsinized with 0.25% trypsin, washed one time with Tumor Cell Media (DMEM+10% FBS), and plated in 90 ul at 5,000 cells/well in Tumor Cell Media. A compound disclosed herein is diluted in Tumor Cell Media and added in a 10 ul volume. Plates are incubated for 72 hours at 37 C and 5% CO2. A volume of 10 uL of Alamar Blue reagent is added to each well and plates are incubated for 3 hours at 37 C and 5% CO2. Alamar Blue fluoresce is read at 560Ex/590Em, and IC50 values are calculated using GraphPad Prism 5.

[11] = tested on: MZB cells; experiment: MZB cells in mouse spleen; format: in vivo; settings: 70 mg/kg Pan-PI3K inhibitor compared to 60 mg/kg Compound A (FIG. 9 right)
[12] = tested on: anti-TNP antibody production; experiment: TNP-Ficoll T-cell independent B-cell activation assay; format: in vivo; settings: mice, 7 days; 70 mg/kg GDC0941; 30, 60, 120 mg/kg Compound A; ELISA; FIG. 8
Procedure: To test the effects of the compounds of the present invention in suppressing T cell independent antibody production, the TNP-Ficoll B-cell activation assay is used as described herein. Compounds of the present invention are dissolved in an appropriate vehicle (e.g. 5% 1-methyl-2-pyrrolidinone, 85% polyethylene glycol 400, 10% Solutor). Compounds are administered orally approximately 1 hr before TNP-Ficoll treatment to 4-10 week old mice. To study the effects of the compounds on B-cell activation, one set of mice are grouped according to the following table:
Four animals in group 1, and eight animals in groups 2 to 7 are euthanized in CO2 2 hours after the last compound administration on day 7. […]
Serum samples are analyzed for anti-TNP antibody titers by ELISA as described herein. […] HRP substrate (200 μl ABTS solution+30% H2O2+10 ml citrate buffer) is added to each well at 100 μl/well, incubated 2-20 minutes in the dark and the amount of anti-TNP IgG3 is determined spectrophotometrically at 405 nm. Similarly, anti-TNP IgM and total anti-TNP Ab are determined using anti-mouse IgM-HRP and anti-mouse Ig-HRP respectively.
Antibody production was measured using ELISA and plotted as as a percentage of control group that were treated with vehicle.

[13] = tested on: marginal zone B cells; experiment: Marginal zone B cells in mouse spleen (FACS); settings: 70 mg/kg Pan-PI3K inhibitor, 60 mg/kg Compound A; spleens harvested 2 hrs after last dose; FIG. 9

IC50 [1] | specificity in inhibiting PI3K α over mTOR and other PI3K isoforms [4] | IC50 [5] | IC50 [7] | SMILES | inhibition of the PI3K pathway in cell lines with elevated PI3K α activity ([2]; MDA-MB-361, MDA-MB-453, SKBr3 breast cancer cells, western blot (FIG. 11)) | inhibition of Akt, S6, and 4EBP phosphorylation ([2]; PTEN mutant cells, western blot (FIG. 6B)) | Akt phosphorylation at serine 473 ([2]; PTEN-mutant cell line (FIG. 12B)) | downregulating Akt and S6 phosphorylation ([2]; combined treatment with Compound A and Compound B, western blot (FIG. 3)) | Akt phosphorylation at serine 473 ([2]; western blot (FIG. 12A)) | B cell function in vivo (antibody production) [3] | inhibition of kinase activity (downstream markers) and tumor growth [6] | tumor weight of a breast cancer model [8] | tumor weight in a preclinical breast cancer model ([8]; combined treatment with Compound A and Compound B (FIG. 2)) | reducing tumor volume of a preclinical breast cancer model ([8]; combined treatment with Compound A and rapamycin (FIG. 4)) | tumor weight [9] | proliferation of tumor cells harboring PI3K α mutations [10] | presence of MZB cells in mouse spleen [11] | B cell function in vivo (antibody production after TNP-Ficoll) [12] | presence (localization/viability) of marginal zone B cells in spleen [13]
~1.9 µM | specificity | ~1 µM | ~10 µM | Nc1nc2cc(-c3ccc4ncc(C(=O)N5CCOCC5)n4c3)ccc2o1 [Compound A] | inhibition | not | reduced inhibition | synergistic effect | inhibition | not | decreased activity by comparison to that seen in the MDA derived tumors | reduction in tumor weight | synergistic effect | synergistic effect | reduction in tumor weight | preferentially inhibits | – | – | –
– | – | – | – | CS(=O)(=O)N1CCN(Cc2cc3nc(-c4cccc5[nH]ncc45)nc(N4CCOCC4)c3s2)CC1 [Pan-PI3K inhibitor, GDC0941, reference compound] | – | – | – | – | – | blocks | – | reduction in tumor weight | – | – | reduction in tumor weight | – | reduced presence | blocks B cell function in vivo | reduced presence of MZB cells
